For one assay, the system named is S. simulans 22. The experiment in a line: MIC assays under standard conditions. In kind it is cell-based, Staphylococcus simulans. Conditions: Supplementary Table 1; cation-adjusted MHB, 37 °C, 16–20 h. The method in brief: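 Broth microdilution in cation-adjusted MHB, inoculum from OD600 0.5 TSB culture diluted 100-fold, 37 °C with shaking. Streptococci: 5% lysed horse blood, 5% CO2, MIC read visually at 20–24 h; S. simulans read at 16–20 h.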

A short description of assay [1]: Isothermal titration calorimetry with lipid II LUVs. Type of assay: binding. The following applies: mutant vs plectasin. Here is the method: About 200 nm large unilamellar vesicles (LUVs) were prepared from 2 mol% lipid II in DOPC by the extrusion technique. ITC measurements were conducted on a low-volume Affinity ITC (TA instruments). All measurements were conducted at 37 °C. Samples were degassed for 10 min before the ITC experiments. The cell was filled with plectasin (in 50 mM HEPES, 150 mM NaCl at pH = 7.2) and titrated with LUVs in the same buffer under constant stirring at 125 r.p.m. The data were analysed using the Nano Analyze software version 3.11.0 (TA Instruments). After baseline correction, the integrated peaks were fitted using an independent binding model. Each measurement was acquired in duplicate.

Assay [2] is described as follows: HS-AFM oligomerization on supported lipid bilayers doped with lipid II. Conditions: DOPC/DOPG (1:1), 1% lipid II, 1 mM Ca^2+, up to 1 µM, n = 3.
Experimental: HS-AFM imaging was performed on a supported lipid bilayer deposited on mica using an amplitude modulation tapping mode HS-AFM from RIBM (Ando type)[11]. The lipid compositions are as stated in the experimental conditions of the corresponding results. Short cantilevers (∼7 μm) with a nominal spring constant of 0.15 N m^−1 were used (USC-F1.2-k0.15, NanoWorld) for all experiments. A minimal imaging force was applied by using a small set-point amplitude, typically 80% of the free amplitude (for 1–2 nm of free amplitude). […] Imaging was started on the lipid bilayer surface in recording buffer. […] All reported experiments were repeated for at least three times for each condition. Image analysis was done using Igor Pro version 6.22 (Wavemetrics) with RIBM script and ImageJ version 1.501 with minimal image corrections (tilt, drift and background corrections). The time stamps on HS-AFM videos are relative to plectasin addition into the liquid chamber. Image acquisition rate varied from 0.5 frames per second to 2 frames per second (see the figure/video legends).
A further assay deals with S. pneumoniae ATCC6305. As to the kind of experiment: MIC assays under standard conditions. In kind it is cell-based, Streptococcus pneumoniae. Conditions: Supplementary Table 1; cation-adjusted MHB + 5% lysed horse blood, 5% CO2, 20–24 h. The protocol: Plectasin and analogues were serially diluted in cation-adjusted Mueller–Hinton broth (MHB) in round-bottom polypropylene 96-well plates (50 µl per well). Selected bacterial strains were grown from glycerol stocks on blood agar plates. Individual colonies were inoculated in TSB and incubated at 37 °C while shaking until OD600 reached 0.5. Bacterial suspensions were then diluted 100 times in cation-adjusted MHB and distributed (50 μl per well) over the microplate containing the diluted plectasin solutions. Plates were covered by a gas-permeable adhesive membrane and incubated at 37 °C while shaking. MICs were determined by visual inspection after 16–20 h (Staphylococcus) or 20–24 h (Streptococcus). For Streptococcus strains, the broth was additionally supplemented with 5% lysed horse blood, and the microplates were incubated under 5% CO2 atmosphere. In the assays, we used the following strains: S. simulans, S. pneumoniae serotype 8, S. pneumoniae ATCC6305 and Streptococcus pyogenes M3.

Assay [3] in a line: Confocal microscopy of GUVs doped with Und-NBD-lipid II. Conditions: GUVs 0.4 mol% Und-NBD-LII in DOPC, 1 μM antibiotic. Here is the method: GUVs were prepared by electroformation using in-house build Teflon cells with two titanium wires as electrodes. About 1 μl of 0.5 mM DOPC with 0.4 mol% NBD–lipid II in 2:1 CHCl3/MeOH was brushed on both electrodes and thoroughly dried under vacuum. Next, the cell was filled with 350 μl 300 mM sucrose, and GUVs were formed by applying an oscillating voltage (sine wave, 2 V, 10 Hz) for 90 min and released from the electrodes (square wave, 2 V, 2 Hz). Microscopy slides were precoated using a 1 mg ml^−1 BSA solution. Slides were filled with 300 μl 300 mM glucose solution, followed by addition of the antibiotic and finally 30–50 μl GUV solution. The GUVs were imaged using a Zeiss LSM 880 confocal microscope with a ×63/1.2NA glycerol objective lens. Green fluorescence (530–545 nm) was detected after excitation with a 488 nm laser.

Entries after “also recorded” stand apart in the source; their conditions may differ. Where a SMILES comes first, the peptide text is derived from it. Bridges are numbered along the chain shown (N, C = ends).

Consider `CC[C@H](C)[C@@H]1NC(=O)[C@H](CO)NC(=O)[C@H](CCCCN)NC(=O)[C@@H]2CSSC[C@@H](C(=O)N[C@@H](Cc3ccc(O)cc3)C(=O)O)NC(=O)[C@H](CCCCN)NC(=O)[C@@H]3CSSC[C@H](NC(=O)[C@H](CCC(N)=O)NC(=O)[C@H](CCSC)NC(=O)[C@H](CC(=O)O)NC(=O)[C@H](CC(=O)O)NC(=O)[C@H](CCC(=O)O)NC(=O)[C@H](CC(=O)O)NC(=O)[C@H](Cc4c[nH]c5ccccc45)NC(=O)[C@@H]4CCCN4C(=O)CNC(=O)[C@H](CC(N)=O)NC(=O)[C@@H](NC(=O)CNC(=O)[C@H](Cc4ccccc4)NC(=O)CN)CSSC[C@H](NC(=O)[C@H](Cc4ccc(O)cc4)NC(=O)CNC(=O)CNC(=O)[C@H](CCCCN)NC(=O)[C@H](Cc4ccc(O)cc4)NC(=O)CNC(=O)[C@H](CCCCN)NC1=O)C(=O)N[C@@H](C)C(=O)N[C@@H](CCCCN)C(=O)NCC(=O)NCC(=O)N[C@@H](Cc1ccccc1)C(=O)N[C@@H](C(C)C)C(=O)N3)C(=O)N[C@@H](C)C(=O)N[C@@H](CC(N)=O)C(=O)N[C@@H](Cc1c[nH]cn1)C(=O)N2` [H16A] (H-GFGCNGPWDEDDMQCANHCKSIKGYKGGYCAKGGFVCKCY-OH; disulfide 4-30, 15-37, 19-39 (inferred); N-terminus and C-terminus assumed), for which the “Minimum inhibitory concentration, S. simulans” value in the assay on S. simulans 22 was > 50 µg/mL. The “loss in lipid II binding affinity (ITC)” value in assay [1] is > 10 fold. In assay [2], the “oligomerization in HS-AFM (in words)” value is reported as “oligomerization was not observed; also recorded: No plectasin oligomerization is observed”. Regarding `CC[C@H](C)[C@@H]1NC(=O)[C@H](CO)NC(=O)[C@H](CCCCN)NC(=O)[C@@H]2CSSC[C@@H](C(=O)N[C@@H](Cc3ccc(O)cc3)C(=O)O)NC(=O)[C@H](CCCCN)NC(=O)[C@@H]3CSSC[C@H](NC(=O)[C@H](CCC(N)=O)NC(=O)[C@H](CCSC)NC(=O)[C@H](CC(=O)O)NC(=O)[C@H](CC(=O)O)NC(=O)[C@H](CCC(=O)O)NC(=O)[C@H](CC(=O)O)NC(=O)[C@H](Cc4c[nH]c5ccccc45)NC(=O)[C@@H]4CCCN4C(=O)CNC(=O)[C@H](CC(N)=O)NC(=O)[C@@H](NC(=O)CNC(=O)[C@H](Cc4ccccc4)NC(=O)CN)CSSC[C@H](NC(=O)[C@H](Cc4ccc(O)cc4)NC(=O)CNC(=O)CNC(=O)[C@H](CCCCN)NC(=O)[C@H](Cc4ccc(O)cc4)NC(=O)CNC(=O)[C@H](CCCCN)NC1=O)C(=O)N[C@@H](C)C(=O)N[C@@H](CCCCN)C(=O)NCC(=O)NCC(=O)N[C@@H](Cc1ccccc1)C(=O)N[C@@H](C(C)C)C(=O)N3)C(=O)N[C@@H](Cc1c[nH]cn1)C(=O)N[C@@H](CC(N)=O)C(=O)N[C@@H](C)C(=O)N2` [H18A] (H-GFGCNGPWDEDDMQCHNACKSIKGYKGGYCAKGGFVCKCY-OH; disulfide 4-30, 15-37, 19-39 (inferred); N-terminus and C-terminus assumed), the “Minimum inhibitory concentration, S. simulans” value with S. simulans 22 was > 50 µg/mL. For the same compound, the “loss in lipid II binding affinity (ITC)” value in assay [1] is given as > 10 fold. For `CC[C@H](C)[C@@H]1NC(=O)[C@H](CO)NC(=O)[C@H](CCCCN)NC(=O)[C@@H]2CSSC[C@@H](C(=O)N[C@@H](Cc3ccc(O)cc3)C(=O)O)NC(=O)[C@H](CCCCN)NC(=O)[C@@H]3CSSC[C@H](NC(=O)[C@H](CCC(N)=O)NC(=O)[C@H](CCSC)NC(=O)[C@H](CC(=O)O)NC(=O)[C@H](CC(=O)O)NC(=O)[C@H](CCC(=O)O)NC(=O)[C@H](CC(=O)O)NC(=O)[C@H](Cc4c[nH]c5ccccc45)NC(=O)[C@@H]4CCCN4C(=O)CNC(=O)[C@H](CC(N)=O)NC(=O)[C@@H](NC(=O)CNC(=O)[C@H](Cc4ccccc4)NC(=O)CN)CSSC[C@H](NC(=O)[C@H](CCCNC(=N)N)NC(=O)CNC(=O)CNC(=O)[C@H](CCCCN)NC(=O)[C@H](Cc4ccc(O)cc4)NC(=O)CNC(=O)[C@H](CCCCN)NC1=O)C(=O)N[C@@H](C)C(=O)N[C@@H](CCCCN)C(=O)NCC(=O)NCC(=O)N[C@@H](Cc1ccccc1)C(=O)N[C@@H](C(C)C)C(=O)N3)C(=O)N[C@@H](Cc1c[nH]cn1)C(=O)N[C@@H](CC(N)=O)C(=O)N[C@@H](Cc1c[nH]cn1)C(=O)N2` [Y29R] (H-GFGCNGPWDEDDMQCHNHCKSIKGYKGGRCAKGGFVCKCY-OH; disulfide 4-30, 15-37, 19-39 (inferred); N-terminus and C-terminus assumed), in the assay on S. simulans 22, the “Minimum inhibitory concentration, S. simulans” value is listed as 1,56 μg/mL. Also, in the assay with S. pneumoniae ATCC6305, the “Minimum inhibitory concentration, S. pneumoniae ATCC6305” value was 1,56 μg/mL.

Turning to `CC[C@H](C)[C@@H]1NC(=O)[C@H](CO)NC(=O)[C@H](CCCCN)NC(=O)[C@@H]2CSSC[C@@H](C(=O)N[C@@H](Cc3ccccc3)C(=O)O)NC(=O)[C@H](CCCCN)NC(=O)[C@@H]3CSSC[C@H](NC(=O)[C@H](CCC(N)=O)NC(=O)[C@H](CCSC)NC(=O)[C@H](CC(=O)O)NC(=O)[C@H](CC(=O)O)NC(=O)[C@H](CCC(=O)O)NC(=O)[C@H](CC(=O)O)NC(=O)[C@H](Cc4c[nH]c5ccccc45)NC(=O)[C@@H]4CCCN4C(=O)CNC(=O)[C@H](CC(N)=O)NC(=O)[C@@H](NC(=O)CNC(=O)[C@H](Cc4ccccc4)NC(=O)CN)CSSC[C@H](NC(=O)[C@H](Cc4ccc(O)cc4)NC(=O)CNC(=O)CNC(=O)[C@H](CCCCN)NC(=O)[C@H](Cc4ccc(O)cc4)NC(=O)CNC(=O)[C@H](CCCCN)NC1=O)C(=O)N[C@@H](C)C(=O)N[C@@H](CCCCN)C(=O)NCC(=O)NCC(=O)N[C@@H](Cc1ccccc1)C(=O)N[C@@H](C(C)C)C(=O)N3)C(=O)N[C@@H](Cc1c[nH]cn1)C(=O)N[C@@H](CC(N)=O)C(=O)N[C@@H](Cc1c[nH]cn1)C(=O)N2` [Y40F] (H-GFGCNGPWDEDDMQCHNHCKSIKGYKGGYCAKGGFVCKCF-OH; disulfide 4-30, 15-37, 19-39 (inferred); N-terminus and C-terminus assumed), in the assay on S. simulans 22, the “Minimum inhibitory concentration, S. simulans” value is 1,56 μg/mL. Besides, the “Minimum inhibitory concentration, S. pneumoniae ATCC6305” value in the assay on S. pneumoniae ATCC6305 is recorded as 0,78 μg/mL.

Regarding `CC[C@H](C)[C@@H]1NC(=O)[C@H](CO)NC(=O)[C@H](CCCCN)NC(=O)[C@@H]2CSSC[C@@H](C(=O)N[C@@H](CCCNC(=N)N)C(=O)O)NC(=O)[C@H](CCCCN)NC(=O)[C@@H]3CSSC[C@H](NC(=O)[C@H](CCC(N)=O)NC(=O)[C@H](CCSC)NC(=O)[C@H](CC(=O)O)NC(=O)[C@H](CC(=O)O)NC(=O)[C@H](CCC(=O)O)NC(=O)[C@H](CC(=O)O)NC(=O)[C@H](Cc4c[nH]c5ccccc45)NC(=O)[C@@H]4CCCN4C(=O)CNC(=O)[C@H](CC(N)=O)NC(=O)[C@@H](NC(=O)CNC(=O)[C@H](Cc4ccccc4)NC(=O)CN)CSSC[C@H](NC(=O)[C@H](Cc4ccc(O)cc4)NC(=O)CNC(=O)CNC(=O)[C@H](CCCCN)NC(=O)[C@H](Cc4ccc(O)cc4)NC(=O)CNC(=O)[C@H](CCCCN)NC1=O)C(=O)N[C@@H](C)C(=O)N[C@@H](CCCCN)C(=O)NCC(=O)NCC(=O)N[C@@H](Cc1ccccc1)C(=O)N[C@@H](C(C)C)C(=O)N3)C(=O)N[C@@H](Cc1c[nH]cn1)C(=O)N[C@@H](CC(N)=O)C(=O)N[C@@H](Cc1c[nH]cn1)C(=O)N2` [Y40R] (H-GFGCNGPWDEDDMQCHNHCKSIKGYKGGYCAKGGFVCKCR-OH; disulfide 4-30, 15-37, 19-39 (inferred); N-terminus and C-terminus assumed), the “Minimum inhibitory concentration, S. simulans” value with S. simulans 22 is > 50 µg/mL. Further, in the assay on S. pneumoniae ATCC6305, the “Minimum inhibitory concentration, S. pneumoniae ATCC6305” value was > 50 µg/mL. As to copsin, the “lipid II cluster/domain formation on GUVs” value in assay [3] was “caused the formation of lipid II domains in liposomes”.

In the case of ramoplanin, the “lipid II cluster/domain formation on GUVs” value in assay [3] was “caused the formation of lipid II domains in liposomes”.

teicoplanin: the “lipid II cluster/domain formation on GUVs” value in assay [3] is listed as “caused the formation of lipid II domains in liposomes”.

The record behind these values is paper PMC11222147, “Host defence peptide plectasin targets bacterial cell wall precursor lipid II by a calcium-sensitive supramolecular mechanism” (Nature Microbiology, 2024).
